Assay results as given in publication PMC8070564, “Synthesis and Antiviral Activity of Camphene Derivatives against Different Types of Viruses” (Molecules, 2021).
Like-named read-outs stand apart in the source and are kept apart here.

Experiments:
[1] = test system: influenza virus A/Puerto Rico/8/34 (H1N1); conditions: cited from earlier work
vaccinia virus (VV) = conditions: cited from earlier work
[2] = test system: influenza virus A/Puerto Rico/8/34 (H1N1); experiment: microbe, parasite or virus in culture; assay type: cell-based; conditions: H1N1, MDCK, read-out: IC50 H1N1
rVSV-ΔG-EboV-GP = experiment: microbe, parasite or virus in culture; assay type: cell-based, Ebola pseudotype viruses; conditions: Zaire ebolavirus, HEK-293T, read-out: IC50 EboV-GP
rVSV-ΔG-MarV-GP = experiment: organism not typed; assay type: cell-based, Marburg pseudotype viruses; conditions: HEK-293T, read-out: IC50 MarV-GP
rVSV-ΔG-G = experiment: microbe, parasite or virus in culture; assay type: cell-based; conditions: Vesicular stomatitis virus, HEK-293T, read-out: IC50 VSV-G
EBOV (strain Zaire) = experiment: microbe, parasite or virus in culture; assay type: cell-based, Ebola virus (EBOV); conditions: for IC50: read-out: IC50 EBOV
rVSV-ΔG-Gn-Gc = experiment: microbe, parasite or virus in culture; assay type: cell-based, Hantaan virus strain 76–118; conditions: Orthohantavirus hantanense, HEK-293T, read-out: IC50 rVSV-ΔG-Gn-Gc
in vitro [3] = conditions: dog
in vitro [4] = conditions: human
in vitro [5] = conditions: African green monkey
[6] = Cytotoxicity in HEK293T cells (Table 5); conditions: human
in vitro [7] = conditions: African green monkey; remark: listed apart in the source
[8] = test system: Ebola virus (EBOV) (strain Zaire); conditions: cited from earlier work
[9] = test system: Marburg virus (MARV) (strain Popp); conditions: cited from earlier work
[10] = test system: vaccinia virus (strain Copenhagen); experiment: microbe, parasite or virus in culture; assay type: cell-based; conditions: Orthopoxvirus vaccinia, Vero, read-out: IC50 VV

SMILES | IC50 [2] [µM] | IC50 (rVSV-ΔG-EboV-GP) [µM] | IC50 (rVSV-ΔG-MarV-GP) [µM] | CC50 (in vitro [3]) [µM] | CC50 (in vitro [4]) [µM] | CC50 (in vitro [7]) [µM] | also measured
CN1CCN(CCC(=O)O[C@@H]2C[C@@H]3CC[C@@]2(C)C3(C)C)CC1 [Ic] |  |  |  |  |  |  | IC50 [1]: 1.9 µM; IC50 (vaccinia virus (VV)): 64.8 µM
CC1(C)[C@@H]2CC[C@@]1(C)[C@H](OCCN1CCCC1)C2 (racemic) [Compound 2a, (±)-1-(2-(1,7,7-Trimethylbicyclo(2.2.1)heptan-2-yloxy)ethyl)pyrrolidine] | 45.3 ± 5.2 | 0.12 ± 0.04 | 73.6 ± 1.9 | > 1190 | 497 ± 8 |  | IC50 (rVSV-ΔG-G): 123 ± 4 µM; IC50 (EBOV (strain Zaire); Zaire ebolavirus, Vero): 18.3 ± 3.1 µM; IC50 (rVSV-ΔG-Gn-Gc): 9.1 ± 1.2 µM; CC50 (in vitro [5]): 231 ± 16.5 µM; CC50 [6]: 358 ± 27.8 µM
CC1(C)[C@@H]2CC[C@@]1(C)[C@H](OCCN1CCCCC1)C2 (racemic) [Compound 3a, (±)-1-(2-(1,7,7-Trimethylbicyclo(2.2.1)heptan-2-yloxy)ethyl)piperidine] | 64.8 ± 5.9 | 6.3 ± 0.3 |  | > 1130 | 942 ± 18.8 |  | IC50 (rVSV-ΔG-G): 942 ± 18.8 µM; IC50 (EBOV (strain Zaire); Zaire ebolavirus, Vero): 15.2 ± 2.1 µM; IC50 (rVSV-ΔG-Gn-Gc): 5 ± 0.8 µM; CC50 (in vitro [5]): 55.9 ± 12.2 µM; CC50 [6]: 151 ± 18.8 µM
CN1CCN(CCCO[C@@H]2C[C@H]3CC[C@]2(C)C3(C)C)CC1 (racemic) [Compound 5b, (±)-1-Methyl-4-(3-(1,7,7-trimethylbicyclo(2.2.1)heptan-2-yloxy)propyl)piperazine] | > 37.4 |  |  | 51 ± 4.1 | 109 ± 3.4 | 64.2 ± 3.1 | 
CN1CCN(CCO[C@@H]2C[C@H]3CC[C@]2(C)C3(C)C)CC1 (racemic) [Compound 5a, (±)-1-Methyl-4-(2-(1,7,7-trimethylbicyclo(2.2.1)heptan-2-yloxy)ethyl)piperazine] | 13.2 ± 2 |  | 85.6 ± 1.8 | 28.5 ± 1.2 | 653 ± 14.3 | 100 ± 6.1 | 
CC1(C)[C@@H]2CC[C@@]1(C)[C@H](OCCCN1CCCCCC1)C2 (racemic) [Compound 8b, (±)-1-(3-((1,7,7-Trimethylbicyclo(2.2.1)heptan-2-yloxy)propyl)azepane] | 320 ± 36.9 |  |  | 374 ± 22.8 | 704 ± 10.3 | 23.7 ± 2.7 | 
CC1(C)[C@H]2CC[C@]1(C)[C@H](OC(=O)CCN1CCCCC1)C2 [Ia] |  |  |  |  |  |  | IC50 [1]: 7.8 µM; IC50 [8]: 47.5 µM; IC50 [9]: 3.7 µM; IC50 (vaccinia virus (VV)): 121 µM
CC(N)C12CC3CC(CC(C3)C1)C2 (stereo not drawn) [Rimantadine, reference compound] | 67 ± 4.9 |  |  | 335 ± 27 |  |  | 
CC1(C)[C@H]2CC[C@]1(C)[C@H](OC(=O)CCN1CCOCC1)C2 [Id] |  |  |  |  |  |  | IC50 [1]: 12.2 µM; IC50 (vaccinia virus (VV)): 3.4 µM
CC1(C)[C@@H]2CC[C@@]1(C)[C@H](OCCN1CCOCC1)C2 (racemic) [Compound 7a, (±)-4-(2-(1,7,7-Trimethylbicyclo(2.2.1)heptan-2-yloxy)ethyl)morpholine] | 252 ± 31.1 | 0.6 ± 0.2 | 150 ± 3.7 | 385 ± 19.7 | 860 ± 22.4 |  | IC50 (rVSV-ΔG-G): 935 ± 26.2 µM; IC50 (EBOV (strain Zaire); Zaire ebolavirus, Vero): 5.63 µM; IC50 (EBOV (strain Zaire)): 5.6 ± 0.9 µM; IC50 (rVSV-ΔG-Gn-Gc): 14.8 ± 1.9 µM; CC50 [6]: 1160 ± 56.1 µM
CC1(C)[C@@H]2CC[C@@]1(C)[C@H](OCCCN1CCOCC1)C2 (racemic) [Compound 7b, (±)-4-(3-(1,7,7-trimethylbicyclo(2.2.1)heptan-2-yloxy)propyl)morpholine] | 24.2 ± 3.1 |  |  | 562 ± 48.2 | 1440 ± 28.4 | 174 ± 11.9 | 
O=C(NN1C(=O)[C@@H]2[C@@H]3C=C[C@@H]([C@H]4C[C@@H]34)[C@@H]2C1=O)c1ccc(C(F)(F)F)cc1 [ST-246, reference compound] |  |  |  |  |  | 1280 ± 202 | IC50 [10]: 0.01 ± 0.003 µM
CC1CCN(CCC(=O)O[C@@H]2C[C@@H]3CC[C@@]2(C)C3(C)C)CC1 [Ib] |  |  |  |  |  |  | IC50 [1]: 15.3 µM; IC50 [8]: 54.3 µM; IC50 [9]: 2.2 µM
Nc1ccn(C[C@@H](CO)OCP(=O)(O)O)c(=O)n1 [Cidofovir, reference compound] |  |  |  |  |  | 475 ± 30.1 | IC50 [10]: 40 ± 1.2 µM
CC1CCN(CCO[C@@H]2C[C@H]3CC[C@]2(C)C3(C)C)CC1 (racemic) [Compound 4a, (±)-4-Methyl-1-(2-(1,7,7-trimethylbicyclo(2.2.1)]heptan-2-yloxy)ethyl)piperidine] | 37.9 ± 5.6 | 1.3 ± 0.1 | 60.8 ± 1.8 | > 1070 | 447 ± 10.7 |  | IC50 (rVSV-ΔG-G): 111 ± 3.6 µM; IC50 EBOV (EBOV (strain Zaire)): did not show antiviral activity
CC1CCN(CCCO[C@@H]2C[C@H]3CC[C@]2(C)C3(C)C)CC1 (racemic) [Compound 4b, (±)-4-Methyl-1-(3-(1,7,7-trimethylbicyclo(2.2.1)heptan-2-yloxy)propyl)piperidine] | 69.7 ± 8.4 |  | 96.1 ± 3.4 | 491 ± 32.2 | 141 ± 3.4 | 40.9 ± 2.7 | 
CC1(C)[C@@H]2CC[C@@]1(C)[C@H](OCCCN1CCCCC1)C2 (racemic) [Compound 3b, (±)-1-(3-(1,7,7-Trimethylbicyclo(2.2.1)heptan-2-yloxy)propyl)piperidine] | 347 ± 41.1 | 473 ± 11.4 | 170 ± 3.8 | 950 ± 52.5 | 2120 ± 49.2 | 140 ± 8.7 | IC50 (rVSV-ΔG-G): 946 ± 22.7 µM
CC1(C)[C@@H]2CC[C@@]1(C)[C@H](OCCCN1CCN(Cc3ccccc3)CC1)C2 (racemic) [Compound 6b, (±)-1-Benzyl-4-(3-(1,7,7-trimethylbicyclo(2.2.1)heptan-2-yloxy)propyl)piperazine] | > 8 | 67.5 ± 2.7 | 124 ± 2.7 | 10.8 ± 0.8 | 148 ± 5.4 | 21.3 ± 2.2 | 
CN[C@H]1CC[C@@H](c2ccc(Cl)c(Cl)c2)c2ccccc21 [Sertraline, sertraline, reference compound] |  |  |  |  | 408 ± 35.9 |  | 
CC1(C)[C@@H]2CC[C@@]1(C)[C@H](OCCN1CCN(Cc3ccccc3)CC1)C2 (racemic) [Compound 6a, (±)-1-Benzyl-4-(2-(1,7,7-trimethylbicyclo(2.2.1)heptan-2-yloxy)ethyl)piperazine] | 3.4 ± 0.5 |  |  | 33.7 ± 2.8 | 575 ± 11.2 | 14 ± 1.7 | 
NC(=O)c1ncn([C@@H]2O[C@H](CO)[C@@H](O)[C@H]2O)n1 [Ribavirin, reference compound] | 24.6 ± 3.7 |  |  | > 2000 |  |  | 
CC1(C)[C@@H]2CC[C@@]1(C)[C@H](OCCN1CCCCCC1)C2 (racemic) [Compound 8a, (±)-1-(2-(1,7,7-Trimethylbicyclo(2.2.1)heptan-2-yloxy)ethyl)azepane] | 35.3 ± 5 | 112 ± 3.6 | 90.2 ± 3.6 | 50.5 ± 4.5 | 721 ± 14.4 | 19.1 ± 2.5 | IC50 (rVSV-ΔG-G): 361 ± 10.8 µM
